Among the data in ChEMBL document CHEMBL1138857, “Quinol-4-ones as steroid A-ring mimetics in nonsteroidal dissociated glucocorticoid agonists” (J Med Chem, 2006) are IC50, Efficacy and EC50 values, retold here.

Broadly, the IC50 is the concentration at which inhibition is half-maximal. For orientation: EC50 means the concentration giving half of the maximal effect.

The target in assay [1] is T1, Progesterone receptor (Homo sapiens, UniProt P06401).
T1 sequence (P06401 whole entry): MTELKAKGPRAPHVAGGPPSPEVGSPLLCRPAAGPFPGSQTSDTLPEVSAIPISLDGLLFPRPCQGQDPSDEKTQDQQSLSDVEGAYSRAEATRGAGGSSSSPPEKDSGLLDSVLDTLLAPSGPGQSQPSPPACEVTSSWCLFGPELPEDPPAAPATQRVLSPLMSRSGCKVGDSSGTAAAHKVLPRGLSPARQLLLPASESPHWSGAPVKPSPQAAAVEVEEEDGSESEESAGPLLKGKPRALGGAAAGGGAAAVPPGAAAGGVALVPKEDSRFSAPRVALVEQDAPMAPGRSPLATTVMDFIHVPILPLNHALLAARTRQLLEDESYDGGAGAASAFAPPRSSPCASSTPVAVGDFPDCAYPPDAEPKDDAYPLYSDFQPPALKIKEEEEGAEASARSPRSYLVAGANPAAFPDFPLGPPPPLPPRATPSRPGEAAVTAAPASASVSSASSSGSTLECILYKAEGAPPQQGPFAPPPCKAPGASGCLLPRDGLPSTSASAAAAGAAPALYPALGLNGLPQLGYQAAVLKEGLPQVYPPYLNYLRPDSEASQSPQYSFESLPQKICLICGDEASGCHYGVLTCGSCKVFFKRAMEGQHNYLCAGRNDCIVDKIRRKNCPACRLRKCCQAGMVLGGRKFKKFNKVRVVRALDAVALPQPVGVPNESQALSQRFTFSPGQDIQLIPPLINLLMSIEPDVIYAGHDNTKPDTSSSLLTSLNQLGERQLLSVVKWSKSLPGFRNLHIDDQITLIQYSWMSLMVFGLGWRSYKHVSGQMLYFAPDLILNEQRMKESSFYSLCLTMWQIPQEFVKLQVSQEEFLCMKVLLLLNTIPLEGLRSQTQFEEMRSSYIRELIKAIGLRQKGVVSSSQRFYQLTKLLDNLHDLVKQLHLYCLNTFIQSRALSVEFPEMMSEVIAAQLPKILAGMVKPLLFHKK
In words: Inhibition of tetramethylrhodamine labeled RU486 binding to PR by FP assay.

Assay [2] addresses T2, Glucocorticoid receptor (Homo sapiens, UniProt P04150).
T2 sequence (P04150 whole entry): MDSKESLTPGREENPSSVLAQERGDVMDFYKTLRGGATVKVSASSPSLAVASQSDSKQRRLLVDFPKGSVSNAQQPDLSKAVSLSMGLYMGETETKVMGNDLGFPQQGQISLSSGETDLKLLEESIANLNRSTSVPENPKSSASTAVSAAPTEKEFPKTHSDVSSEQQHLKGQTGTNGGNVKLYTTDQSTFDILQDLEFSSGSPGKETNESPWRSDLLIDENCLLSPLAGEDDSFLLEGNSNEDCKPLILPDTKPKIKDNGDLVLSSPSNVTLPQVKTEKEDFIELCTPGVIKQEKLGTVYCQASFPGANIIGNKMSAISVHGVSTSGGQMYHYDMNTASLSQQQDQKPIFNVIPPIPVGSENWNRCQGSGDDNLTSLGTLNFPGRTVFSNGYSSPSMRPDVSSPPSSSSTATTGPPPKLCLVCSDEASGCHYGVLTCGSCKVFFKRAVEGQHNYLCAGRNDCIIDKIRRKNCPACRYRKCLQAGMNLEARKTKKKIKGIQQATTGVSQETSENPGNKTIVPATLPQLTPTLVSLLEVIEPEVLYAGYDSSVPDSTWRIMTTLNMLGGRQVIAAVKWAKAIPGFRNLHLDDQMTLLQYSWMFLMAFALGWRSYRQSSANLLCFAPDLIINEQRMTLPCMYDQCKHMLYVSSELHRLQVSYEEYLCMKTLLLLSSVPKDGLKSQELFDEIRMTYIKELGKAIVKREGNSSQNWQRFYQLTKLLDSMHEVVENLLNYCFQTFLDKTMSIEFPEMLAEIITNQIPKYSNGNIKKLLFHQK

Assay [3] has as its system HFF. Kind of assay: Inhibition of IL1-stimulated IL6 production in HFF cells relative to Dexamethasone. The class given is functional, Homo sapiens.
Assay [4] addresses T3, Mineralocorticoid receptor (Homo sapiens, UniProt P08235).
T3 sequence (P08235 whole entry): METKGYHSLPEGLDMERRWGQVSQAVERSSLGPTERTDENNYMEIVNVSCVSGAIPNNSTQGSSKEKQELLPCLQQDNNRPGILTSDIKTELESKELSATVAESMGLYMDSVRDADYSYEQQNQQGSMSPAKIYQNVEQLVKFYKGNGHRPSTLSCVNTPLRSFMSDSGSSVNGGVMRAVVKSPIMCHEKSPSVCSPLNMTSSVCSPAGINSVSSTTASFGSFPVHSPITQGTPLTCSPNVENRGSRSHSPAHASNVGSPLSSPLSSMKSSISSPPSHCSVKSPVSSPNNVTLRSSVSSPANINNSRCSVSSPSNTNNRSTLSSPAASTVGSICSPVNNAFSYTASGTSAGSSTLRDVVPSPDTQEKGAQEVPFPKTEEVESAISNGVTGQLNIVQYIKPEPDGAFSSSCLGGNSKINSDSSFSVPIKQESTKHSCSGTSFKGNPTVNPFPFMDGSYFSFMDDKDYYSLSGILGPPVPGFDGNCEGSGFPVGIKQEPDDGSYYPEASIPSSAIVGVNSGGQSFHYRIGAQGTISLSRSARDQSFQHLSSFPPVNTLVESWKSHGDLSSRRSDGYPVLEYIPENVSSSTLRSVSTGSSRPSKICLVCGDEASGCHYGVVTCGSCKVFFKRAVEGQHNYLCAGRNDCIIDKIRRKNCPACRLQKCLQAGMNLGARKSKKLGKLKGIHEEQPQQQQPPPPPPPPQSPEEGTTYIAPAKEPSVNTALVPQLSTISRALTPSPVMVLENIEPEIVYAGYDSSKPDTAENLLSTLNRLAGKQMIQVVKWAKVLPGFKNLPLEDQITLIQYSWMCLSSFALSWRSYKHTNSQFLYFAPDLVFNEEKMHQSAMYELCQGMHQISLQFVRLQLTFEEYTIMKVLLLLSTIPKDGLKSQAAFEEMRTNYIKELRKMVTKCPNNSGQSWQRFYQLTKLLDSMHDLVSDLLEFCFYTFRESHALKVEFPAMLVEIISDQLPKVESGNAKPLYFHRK
In words: Inhibition of tetramethylrhodamine labeled dexamethasone binding to MR by FP assay.

Assay [5] has as its system HFF. In words: Inhibition of IL1-stimulated IL6 production in HFF cells. In kind it is functional, cell-based. To be noted: Homo sapiens.
For assay [6], the system named is HeLa. In words: Activation of MMTV in HeLa cells measured by luciferase activity. In kind it is functional, cell-based. The conditions noted are these: Homo sapiens.
Assay [7] concerns HFF. In words: Induction of aromatase activity in HFF cells assessed as production of beta estradiol by aromatase assay. In kind it is functional, cell-based. To be noted: Homo sapiens.
The test system of assay [8] is HeLa. Kind of assay: Activation of MMTV in HeLa cells measured by luciferase activity relative to Dexamethasone. The class given is functional, Homo sapiens.
The test system of assay [9] is HFF. In words: Induction of aromatase activity in HFF cells assessed as production of beta estradiol by aromatase assay relative to Dexamethasone. In kind it is functional, Homo sapiens.

On to `Cc1ccc(O)c(C(C)(C)CC(O)(Cn2ccc(=O)c3ccccc32)C(F)(F)F)c1` (stereo unspecified), for which the IC50 in assay [1] came out at 160 nM; in assay [2], 8 nM; in assay [4], 160 nM; in assay [5] it was 5.6 nM. Besides, in [3], the Efficacy is 93%.

Regarding `COc1ccc(F)cc1C(C)(C)CC(O)(CN1C[C@H](C)O[C@@H](C)C1)C(F)(F)F` (stereo partly specified), the IC50 in assay [1] is over 2000 nM; in assay [2] it was 110 nM; in assay [4], 1500 nM; in assay [5], over 2000 nM. For the same molecule, in [3], the Efficacy is on record as 41%.

Turning to `COc1ccc(F)cc1C(C)(C)CC(O)(C(=O)Nc1ccc2c(=O)onc(C)c2c1)C(F)(F)F` (stereo unspecified), the IC50 in [1] was 22 nM; in assay [2], 8 nM; in assay [4] it was 130 nM; in assay [5] it was over 2000 nM. The molecule also registered an Efficacy in [3] of 19%.

Consider `COc1ccc(F)cc1C(C)(C)CC(O)(Cn1cc(C)c(=O)c(C)c1)C(F)(F)F` (stereo unspecified), for which the IC50 in [1] was over 2000 nM; in assay [2], 120 nM; in assay [4] it was 1900 nM; in assay [5] it was 53 nM. The EC50 in [6] is over 2000 nM; in assay [7] it was 170 nM. Moreover, the results for the Efficacy in assay [3], in assay [8] and in assay [9] were 87%, 3% and 77%, respectively.

`COc1ccc(F)cc1C(C)(C)CC(O)(Cn1cnc2ccccc21)C(F)(F)F` (stereo unspecified): the IC50 was over 2000 nM in [1], 54 nM in [2], 775 nM in assay [4] and over 2000 nM in [5]. In addition, the Efficacy in [3] is on record as 15%.

Consider `Cc1noc(=O)c2ccc(NC(=O)C(O)(CC(C)(C)c3cccc4c3OCC4)C(F)(F)F)cc12` (stereo unspecified), for which the EC50 in assay [6] was over 2000 nM; in assay [7], 91 nM. Moreover, the Efficacy in [3] worked out at 80%; in assay [8], 14%; in assay [9] it was 56%. Moreover, the IC50 is 38 nM in assay [4] and 59 nM in assay [5].

As to `COc1ccc(F)cc1C(C)(C)CC(O)(Cn1ccnc1)C(F)(F)F` (stereo unspecified), the IC50 in assay [1], in assay [2] and in [4] was over 2000 nM in each case.

As for `C[C@@H]1C[C@H]2[C@@H]3CCC4=CC(=O)C=C[C@]4(C)[C@@]3(F)[C@@H](O)C[C@]2(C)[C@@]1(O)C(=O)CO` [DEXAMETHASONE], the IC50 in assay [1] was over 2000 nM; in [5] it was 0.51 nM. For the same molecule, the EC50 amounted to 17 nM in assay [6] and 1.9 nM in assay [7].

For `COc1ccc(F)cc1C(C)(C)CC(O)(Cn1cnc(=O)c2ccccc21)C(F)(F)F` (stereo unspecified), the IC50 is over 2000 nM in assay [1], 690 nM in assay [2] and over 2000 nM in assay [4].

On to `CC(C)(CC(O)(Cn1ccc(=O)c2ccccc21)C(F)(F)F)c1ccccc1O` (stereo unspecified), for which the IC50 in assay [1] was 555 nM; in assay [2] it was 6 nM; in assay [4], 450 nM; in assay [5], 6 nM. In [3], the Efficacy is 90%.

For `CC(C)(CC(O)(Cn1ccc(=O)c2ccccc21)C(F)(F)F)c1ccccc1` (stereo unspecified), the IC50 in [1] came out at 106 nM; in [2], 28 nM; in assay [4], 350 nM; in [5], 78 nM. For the same molecule, the Efficacy in assay [3] worked out at 48%.

As for `COc1ccc(F)cc1C(C)(C)CC(O)(Cn1ccc(=O)c2ncccc21)C(F)(F)F` (stereo unspecified), the IC50 in assay [1] was over 2000 nM; in [2], 77 nM; in assay [4], 1100 nM; in assay [5], 56 nM. For the same molecule, the Efficacy in assay [3] is recorded as 78%; in assay [9], 41%.

For `COc1ccc(F)cc1C(C)(C)CC(O)(Cn1cc(C)nc1C)C(F)(F)F` (stereo unspecified), the values for the IC50 in assay [1], in [2] and in [4] were over 2000 nM, 650 nM and 620 nM, respectively.

Turning to `COc1ccc(F)cc1C(C)(C)CC(O)(CN1CCOCC1)C(F)(F)F` (stereo unspecified), the IC50 in assay [1], in [2] and in [4] was over 2000 nM each time.

With `COc1ccc(F)cc1C(C)(C)CC(O)(CN1CCC(=O)CC1)C(F)(F)F` (stereo unspecified), the IC50 in assay [1] was over 2000 nM; in [2], 1400 nM; in assay [4] it was over 2000 nM.

As to `Cc1ccc(O)cc1C(C)(C)CC(O)(Cn1ccc(=O)c2ccccc21)C(F)(F)F` (stereo unspecified), the results for the IC50 in [1], in assay [2] and in assay [4] were over 2000 nM, 780 nM and over 2000 nM, respectively.

Turning to `COc1ccc(F)cc1C(C)(C)CC(O)(Cn1ccc(=O)cc1)C(F)(F)F` (stereo unspecified), the IC50 in assay [1], in assay [2] and in [4] was over 2000 nM in each case.

`COc1ccc(F)cc1C(C)(C)CC(O)(CN1CCCc2ccccc21)C(F)(F)F` (stereo unspecified): the IC50 in [1] was over 2000 nM; in assay [2] it was 950 nM; in assay [4], 1600 nM.

Consider `COc1ccc(F)cc1C(C)(C)CC(O)(Cn1ccc(=O)c2cnccc21)C(F)(F)F` (stereo unspecified), for which the IC50 in assay [1] was over 2000 nM; in assay [2], 34 nM; in [4] it was 175 nM; in assay [5] it was 35 nM. Moreover, in assay [6], the EC50 was over 2000 nM. For the same molecule, the results for the Efficacy in [3], in assay [8] and in [9] were 72%, 1% and 39%, respectively.

`CC(C)(CC(O)(Cn1ccc(=O)c2ccccc21)C(F)(F)F)c1ccc(F)cc1O` (stereo unspecified): the results for the IC50 in [1], in assay [2] and in assay [4] were 340 nM, 3 nM and 880 nM, respectively. The EC50 amounted to 15 nM in assay [6] and 17 nM in assay [7]. Further, the Efficacy in assay [3] came to 88%; in assay [8], 35%; in assay [9], 82%.
